Results published in patent publication US20080194574A1, “Pyrazine Derivatives As Effective Compounds Against Infectious Diseases” (AXXIMA PHARMACEUTICALS AG, priority 2003, published 2008).
Like-named read-outs stand apart in the source and are kept apart here.

What was measured:
[1] = biological target: RICK (Homo sapiens, UniProt O43353); assay: General kinase assay protocol (33P-ATP, MBP substrate, filter plate): RICK; format: biochemical; conditions: inhibition at concentration 10 μM; read-out: Inhibitory effect on Target RICK
Source text: (§1) General Assay Protocol for all Kinases
(§2) (For UL97 a special UL97 kinase assay was used as described below.)

[2] = biological target: T1, viral kinase pUL-97 (Human cytomegalovirus, UniProt P16788); assay: UL97 kinase assay on Immobilon plate; format: biochemical
T1 construct: The pUL-97 gene was cloned into a baculovirus vector; GST (glutathione S-transferase) (N); made in house; host or cells: Sf9 insect cells, baculovirus
Method in brief: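 GST-pUL97 from baculovirus-infected Sf9 cells phosphorylated myelin basic protein with ATP (3 μM in the added assay buffer) and γ-[33P]ATP in Tris-HCl pH 7.5 buffer with MnCl2 and DTT. Reaction ran 1 h at 30 °C with graded compound concentrations and was stopped with EDTA. 33P incorporation was measured by scintillation after filter capture and phosphoric acid washes.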

[3] = biological target: CDK9 (Homo sapiens, UniProt P50750); assay: General kinase assay protocol (33P-ATP, MBP substrate, filter plate): CDK9; format: biochemical; conditions: inhibition at concentration 10 μM; read-out: Inhibitory effect on Target CDK9
Experimental: as §1, §2
(§3) Final Assay Concentrations:
(§4) • 1) Add 8 μl 50 μM MBP in Reaction Buffer to each well of Assay Plate • 2) Add 10 μl 500 mM EDTA in H2O to C− wells • 3) Add 8 μl 62.5 μCi/ml Adenosine 5′-[γ-^33P]triphosphate+5 μM ATP in Reaction Buffer to each well • 4) Add 8 μl 5 fold concentrated inhibitor in 5% DMSO in Reaction Buffer to each well except to C− and C+ wells • 5) Add 8 μl 5% DMSO in Reaction Buffer to C− and C+wells • 6) Add 8 μl 5 fold concentrated kinase in Reaction Buffer to each well • 7) Incubate 1 hr at room temperature • 8) Add 10 μl 50 mM EDTA in H2O to each well except to C− wells • 9) Prepare MAPH plates by adding 200 μl 0.75% H3PO4 to each well • 10) Exhaust 0.75% H3PO4 using Millipore vacuum station • 11) Add 60 μl 0.75% H3PO4 to each well of MAPH Filter Plate • 12) Transfer 30 μl sample per well from Assay Plate to corresponding well of MAPH Filter Plate • 13) Incubate 30 min at room temperature • 14) Wash each well of MAPH Filter Plates 3× with 200 μl 0.75% H3PO4 using Millipore vacuum station • 15) Add 20 μl Szintilation Liquid to each well of MAPH Filter Plate • 16) Seal MAPH Filter Plate • 17) Store MAPH Filter Plate 30 min in darkness • 18) Quantify radioactivity

[4] = biological target: SRPK1 (Homo sapiens, UniProt Q96SB4); assay: General kinase assay protocol (33P-ATP, MBP substrate, filter plate): SRPK1; format: biochemical; conditions: inhibition at concentration 10 μM; read-out: Inhibitory effect on Target SRPK1
Experimental: as §1, §2, §3, §4

[5] = test system: HCMV strain AD169; assay: HCMV replication assay (reporter gene) in human foreskin fibroblasts; format: cell-based, human cytomegalovirus; conditions: Human betaherpesvirus 5; HCMV strain AD169 in HFF cells; read-out: IC50 in inhibiting replication of HCMV
Experimental: To examine the effect of the pyrazine derivatives on HCMV replication, HCMV infections were performed in a cellular system.
Human foreskin fibroblasts (HFFs) were grown to subconfluency in 12 well plates and infected with 0.25 tissue culture infectious doses of HCMV AD-169 carrying a reporter gene (HCMV based antiviral assay). Pyrazine derivatives (stocks in DMSO (Dimethylsulfoxide)) were diluted in culture medium to the concentrations indicated and added to the cells immediately after virus adsorption. The success of infection (reporter gene expressing cells) and the lack of cytotoxicity of the compound (confluent cell layer) was monitored by microscopy. After seven days, cell layers were harvested, lysed and subjected to the automated fluorometry measurement of reporter gene activity. Each panel refers to a determination in quadruplicate (infection in duplicate, lysate preparation and measurement in duplicate).

[6] = inhibition of UL 97 kinase activity, class by IC50 / % inhibition at 10 or 100 μM, read-out: Activity Class [A, B, C]
[7] = inhibition of UL 97 kinase activity, class by IC50 / % inhibition at 10 μM or 100 μM, read-out: Activity Class [A, B, C]

Sequence of RICK (O43353 whole entry, species assumed): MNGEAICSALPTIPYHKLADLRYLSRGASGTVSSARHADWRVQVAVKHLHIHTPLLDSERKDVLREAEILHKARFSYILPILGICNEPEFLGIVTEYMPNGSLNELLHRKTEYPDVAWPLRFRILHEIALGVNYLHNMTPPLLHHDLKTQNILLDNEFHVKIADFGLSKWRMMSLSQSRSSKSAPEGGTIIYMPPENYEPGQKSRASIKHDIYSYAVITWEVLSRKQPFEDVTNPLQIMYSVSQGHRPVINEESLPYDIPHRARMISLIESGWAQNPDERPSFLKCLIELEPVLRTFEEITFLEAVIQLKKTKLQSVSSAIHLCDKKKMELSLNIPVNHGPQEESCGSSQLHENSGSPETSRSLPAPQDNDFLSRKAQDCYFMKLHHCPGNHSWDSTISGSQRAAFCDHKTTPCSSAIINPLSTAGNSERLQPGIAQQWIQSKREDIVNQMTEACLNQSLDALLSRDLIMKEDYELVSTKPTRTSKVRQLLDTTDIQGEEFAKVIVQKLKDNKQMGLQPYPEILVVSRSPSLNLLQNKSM
T1 sequence (P16788 whole entry): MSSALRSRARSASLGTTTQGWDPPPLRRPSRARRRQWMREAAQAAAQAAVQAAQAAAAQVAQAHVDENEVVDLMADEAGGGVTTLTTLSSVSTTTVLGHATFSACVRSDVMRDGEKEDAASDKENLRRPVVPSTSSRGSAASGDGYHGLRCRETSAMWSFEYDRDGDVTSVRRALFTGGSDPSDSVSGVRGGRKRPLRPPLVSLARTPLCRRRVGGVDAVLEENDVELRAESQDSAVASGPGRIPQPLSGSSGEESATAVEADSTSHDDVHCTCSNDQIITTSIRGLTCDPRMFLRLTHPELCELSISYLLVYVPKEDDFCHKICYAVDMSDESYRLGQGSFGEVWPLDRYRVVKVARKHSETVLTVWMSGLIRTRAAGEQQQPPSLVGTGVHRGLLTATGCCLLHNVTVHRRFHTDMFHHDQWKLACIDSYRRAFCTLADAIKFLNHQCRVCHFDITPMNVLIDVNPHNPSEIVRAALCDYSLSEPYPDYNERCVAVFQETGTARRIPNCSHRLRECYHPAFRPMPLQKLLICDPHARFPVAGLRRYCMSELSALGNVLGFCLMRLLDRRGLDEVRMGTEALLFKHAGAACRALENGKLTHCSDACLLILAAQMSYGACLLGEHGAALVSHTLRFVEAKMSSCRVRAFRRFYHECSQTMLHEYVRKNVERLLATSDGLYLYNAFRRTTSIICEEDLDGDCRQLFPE
Sequence of CDK9 (P50750 whole entry, species assumed): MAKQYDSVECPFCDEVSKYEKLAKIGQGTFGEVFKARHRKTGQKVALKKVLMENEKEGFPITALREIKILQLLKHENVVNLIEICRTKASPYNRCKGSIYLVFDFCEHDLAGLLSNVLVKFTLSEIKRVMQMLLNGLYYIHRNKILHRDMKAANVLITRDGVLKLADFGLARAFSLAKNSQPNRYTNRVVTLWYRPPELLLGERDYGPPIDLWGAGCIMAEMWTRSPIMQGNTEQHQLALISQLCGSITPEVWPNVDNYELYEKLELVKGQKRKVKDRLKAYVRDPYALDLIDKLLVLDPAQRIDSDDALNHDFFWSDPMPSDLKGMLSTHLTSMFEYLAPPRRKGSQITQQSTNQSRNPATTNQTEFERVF
Sequence of CDK9 (O60563 whole entry partner, species assumed): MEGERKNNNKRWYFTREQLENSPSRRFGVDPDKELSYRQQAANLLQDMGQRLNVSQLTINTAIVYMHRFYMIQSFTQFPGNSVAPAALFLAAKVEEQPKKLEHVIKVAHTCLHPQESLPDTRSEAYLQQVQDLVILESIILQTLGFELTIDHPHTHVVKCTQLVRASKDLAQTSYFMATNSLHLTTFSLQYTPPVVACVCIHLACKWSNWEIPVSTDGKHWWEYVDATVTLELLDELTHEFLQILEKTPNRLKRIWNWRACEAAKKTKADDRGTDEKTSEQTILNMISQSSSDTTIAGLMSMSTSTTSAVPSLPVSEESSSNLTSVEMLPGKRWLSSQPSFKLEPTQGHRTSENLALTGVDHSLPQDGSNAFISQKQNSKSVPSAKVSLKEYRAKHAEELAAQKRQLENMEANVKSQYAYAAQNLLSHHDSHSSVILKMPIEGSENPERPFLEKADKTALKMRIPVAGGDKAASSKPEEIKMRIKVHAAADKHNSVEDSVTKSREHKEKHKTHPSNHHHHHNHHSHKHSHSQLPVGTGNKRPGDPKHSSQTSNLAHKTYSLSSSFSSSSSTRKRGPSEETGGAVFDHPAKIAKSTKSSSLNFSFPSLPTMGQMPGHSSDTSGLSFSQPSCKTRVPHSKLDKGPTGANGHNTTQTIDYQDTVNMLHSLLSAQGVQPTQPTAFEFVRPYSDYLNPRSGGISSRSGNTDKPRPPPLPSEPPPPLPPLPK
Sequence of SRPK1 (Q96SB4 whole entry, species assumed): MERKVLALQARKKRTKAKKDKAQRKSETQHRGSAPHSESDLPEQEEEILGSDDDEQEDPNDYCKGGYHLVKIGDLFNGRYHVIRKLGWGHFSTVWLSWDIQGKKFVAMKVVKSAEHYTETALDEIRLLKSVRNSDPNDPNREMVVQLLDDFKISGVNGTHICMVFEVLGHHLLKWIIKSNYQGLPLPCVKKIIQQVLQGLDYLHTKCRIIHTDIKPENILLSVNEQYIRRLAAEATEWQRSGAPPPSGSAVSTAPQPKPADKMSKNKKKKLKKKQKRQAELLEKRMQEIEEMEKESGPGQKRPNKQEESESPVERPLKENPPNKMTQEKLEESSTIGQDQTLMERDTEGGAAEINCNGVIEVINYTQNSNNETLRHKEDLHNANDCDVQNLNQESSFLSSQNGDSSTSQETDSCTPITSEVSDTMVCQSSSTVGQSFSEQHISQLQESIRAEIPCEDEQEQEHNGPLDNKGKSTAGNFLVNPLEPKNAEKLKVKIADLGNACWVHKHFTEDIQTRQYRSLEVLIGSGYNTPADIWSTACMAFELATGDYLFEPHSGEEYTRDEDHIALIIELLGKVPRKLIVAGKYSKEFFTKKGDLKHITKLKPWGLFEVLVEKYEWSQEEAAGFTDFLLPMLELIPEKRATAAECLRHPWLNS

inhibition at 10 µM [1] | IC50 [2, 7] | Compound | also measured
> 50% |  | COc1cc(Nc2cncc(-c3cccc(F)c3)n2)cc(OC)c1OC [Comp. 7, [6-(3-Fluoro-phenyl)-pyrazin-2-yl]-(3,4,5-trimethoxy-phenyl)-amine] | IC50 [2, 6]: 1 to 10 µM
> 50% |  | Oc1ccc(-c2cncc(Nc3ccc(F)c(Cl)c3)n2)cc1 [Comp. 11] | inhibition at 10 µM [3]: > 75%; IC50 [2, 6]: < 1 µM
 |  | CN(C)CCNC(=O)c1cccc(-c2cncc(Nc3ccc(C#N)c(Cl)c3)n2)c1 [Comp. 22, 3-[6-(3-Chloro-4-cyano-phenylamino)-pyrazin-2-yl]-N-(2-dimethylamino-ethyl)-benzamide] | IC50 [2]: < 1 µM; inhibition at 10 µM [4]: > 75%
> 50% |  | CN(C)CCNC(=O)c1cccc(-c2cncc(Nc3ccc(Cl)cc3)n2)c1 [Comp. 381] | inhibition at 10 µM [3]: > 50%
 |  | CC(=O)Nc1ccc(-c2cncc(Nc3ccccc3)n2)cc1 [Comp. 401] | inhibition at 10 µM [4]: > 50%
> 50% |  | Oc1ccc(-c2cncc(Nc3cccc(C(F)(F)F)c3)n2)cc1 [compound 29, 4-[6-(3-Trifluoromethyl-phenylamino)-pyrazin-2-yl]-phenol] | IC50 [2, 6]: < 1 µM
 | 1 to 10 µM | COc1ccc(N2CCN(c3cncc(-c4ccc(F)cc4)n3)CC2)cc1 [compound 363, 6′-(4-Fluoro-phenyl)-4-(4-methoxy-phenyl)-3,4,5,6-tetrahydro-2H-[1,2′]bipyrazinyl] | 
 | 1 to 10 µM | COc1cccc(N2CCN(c3cncc(-c4ccc(C(N)=O)cc4)n3)CC2)c1 [compound 364, 4-[4-(3-Methoxy-phenyl)-3,4,5,6-tetrahydro-2H-[1,2′]bipyrazinyl-6′-yl]-benzamide] | 
 | 10 to 100 µM | COc1cccc(N2CCN(c3cncc(-c4ccccc4)n3)CC2)c1 [compound 365, 4-(3-Methoxy-phenyl)-6′-phenyl-3,4,5,6-tetrahydro-2H-[1,2′]bipyrazinyl] | 
 | 1 to 10 µM | COc1cccc(-c2cncc(N3CCN(c4cccc(OC)c4)CC3)n2)c1 [compound 366, 4,6′-Bis-(3-methoxy-phenyl)-3,4,5,6-tetrahydro-2H-[1,2′]bipyrazinyl] | 
 | 1 to 10 µM | COc1cccc(N2CCN(c3cncc(-c4ccc(F)cc4)n3)CC2)c1 [compound 367, 6′-(4-Fluoro-phenyl)-4-(3-methoxy-phenyl)-3,4,5,6-tetrahydro-2H-[1,2′]bipyrazinyl] | 
 | 1 to 10 µM | COc1cccc(N2CCN(c3cncc(-c4cccc(C(C)=O)c4)n3)CC2)c1 [compound 368, 1-{3-[4-(3-Methoxy-phenyl)-3,4,5,6-tetrahydro-2H-[1,2′]bipyrazinyl-6′-yl]-phenyl}-ethanone] | 
 | 1 to 10 µM | COc1cccc(N2CCN(c3cncc(-c4ccc(SC)cc4)n3)CC2)c1 [compound 369, 4-(3-Methoxy-phenyl)-6′-(4-methylsulfanyl-phenyl)-3,4,5,6-tetrahydro-2H-[1,2′]bipyrazinyl] | 
 | 10 to 100 µM | Fc1ccc(-c2cncc(N3CCN(c4ccc(Cl)c(Cl)c4)CC3)n2)cc1 [compound 370] | 
 | 10 to 100 µM | COc1ccc(-c2cncc(N3CCN(c4ccc(Cl)c(Cl)c4)CC3)n2)cc1OC [compound 371, 4-(3,4-Dichloro-phenyl)-6′-(3,4-dimethoxy-phenyl)-3,4,5,6-tetrahydro-2H-[1,2′]bipyrazinyl] | 
 | 10 to 100 µM | CSc1ccc(-c2cncc(N3CCN(c4ccc(Cl)c(Cl)c4)CC3)n2)cc1 [compound 372, 4-(3,4-Dichloro-phenyl)-6′-(4-methylsulfanyl-phenyl)-3,4,5,6-tetrahydro-2H-[1,2′]bipyrazinyl] | 
 | 10 to 100 µM | Cc1nc(C)c(N2CCN(c3ccncc3)CC2)nc1-c1cc2ccccc2s1 [compound 373, 6′-Benzo[b]thiophen-2-yl-3′,5′-dimethyl-4-pyridin-4-yl-3,4,5,6-tetrahydro-2H-[1,2′]bipyrazinyl] | 

inhibition at 10 µM [1] | IC50 [2, 7] | Compound | also measured
> 50% |  | Nc1cccc(-c2cncc(Nc3ccc(Cl)cc3)n2)c1 [compound 380] | 
> 50% |  | COc1cc(-c2cncc(Nc3ccc(F)c(Cl)c3)n2)cc(OC)c1OC [compound 382] | 
> 75% |  | Oc1ccc(-c2cncc(Nc3ccccc3)n2)cc1 [compound 386] | 
> 50% |  | COc1ccc(-c2cncc(Nc3cccc(C#N)c3)n2)cc1 [compound 388] | 
> 50% |  | CN(C)c1cccc(-c2cncc(Nc3cccc(C#N)c3)n2)c1 [compound 391] | 
 |  | CC(=O)Nc1ccc(-c2cncc(Nc3ccc(Cl)cc3)n2)cc1 [compound 397] | inhibition at 10 µM [3]: > 50%
> 75% |  | COc1cc(Nc2cncc(-c3ccc(N)cc3)n2)cc(OC)c1OC [compound 398] | 
> 75% |  | COc1cc(Nc2cncc(-c3ccc4ccccc4c3)n2)cc(OC)c1OC [compound 402] | 
 |  | CC(=O)Nc1cccc(-c2cncc(Nc3ccc4c(c3)OC(F)(F)C(F)(F)O4)n2)c1 [compound 403] | inhibition at 10 µM [3]: > 50%
> 50% |  | Cc1ccc(Nc2cncc(-c3ccc(F)cc3F)n2)cc1NS(C)(=O)=O [compound 410] | 
> 50% |  | Oc1cccc(-c2cncc(Nc3ccc(F)c(Cl)c3)n2)c1 [compound 417] | 
> 50% |  | OCc1ccccc1-c1cncc(Nc2ccc(Cl)cc2)n1 [compound 420] | 
> 50% |  | COc1cc(Nc2cncc(-c3cccc(O)c3)n2)cc(OC)c1OC [compound 423] | 
> 50% |  | Nc1ncc(-c2ccc(O)cc2)nc1Nc1ccc2[nH]ccc2c1 [compound 428] | 
> 75% |  | COc1cccc(-c2cnc(N)c(Nc3ccc4[nH]ccc4c3)n2)c1 [compound 432] | 
 |  | Nc1nc(O)c2ncn(COC(CO)CO)c2n1 [ganciclovir] | IC50 [5]: 3 to 4 µM
